Source: patent publication US9492471B2, “Methods of treating a disease or disorder associated with Bruton'S Tyrosine Kinase” (Celgene Avilomics Research, Inc., priority 2013, dated 2016)
Where two headings read alike, the source gives them in different places.

Legend:
Test in all cases: HotSpot kinase profiling
Format in all cases: biochemical
AKT3 = target: T1, AKT3 (Homo sapiens, UniProt Q9Y243)
T1 construct: purchased Reaction Biology Corp
How it was run: (§1)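 Activity is measured by radiolabel transfer captured on P81 filters after a 2 h room-temperature reaction of kinase, substrate and cofactors. Values are percent inhibition against DMSO.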

TESK1 = target: T2, TESK1 (Homo sapiens, UniProt Q15569)
T2 construct: purchased Reaction Biology Corp
How it was run: as §1

MAPKAPK2 = target: T3, MAPKAPK2 (Homo sapiens, UniProt P49137)
T3 construct: purchased Reaction Biology Corp
How it was run: as §1

RAF1 = conditions: 3 μM
How it was run: as §1

TLK2 = target: T4, TLK2 (Homo sapiens, UniProt Q86UE8)
T4 construct: purchased Reaction Biology Corp
How it was run: as §1

IKKb/IKBKB = target: T5, IKKb/IKBKB (Homo sapiens, UniProt O14920)
T5 construct: purchased Reaction Biology Corp
T5 sequence (O14920 1-756): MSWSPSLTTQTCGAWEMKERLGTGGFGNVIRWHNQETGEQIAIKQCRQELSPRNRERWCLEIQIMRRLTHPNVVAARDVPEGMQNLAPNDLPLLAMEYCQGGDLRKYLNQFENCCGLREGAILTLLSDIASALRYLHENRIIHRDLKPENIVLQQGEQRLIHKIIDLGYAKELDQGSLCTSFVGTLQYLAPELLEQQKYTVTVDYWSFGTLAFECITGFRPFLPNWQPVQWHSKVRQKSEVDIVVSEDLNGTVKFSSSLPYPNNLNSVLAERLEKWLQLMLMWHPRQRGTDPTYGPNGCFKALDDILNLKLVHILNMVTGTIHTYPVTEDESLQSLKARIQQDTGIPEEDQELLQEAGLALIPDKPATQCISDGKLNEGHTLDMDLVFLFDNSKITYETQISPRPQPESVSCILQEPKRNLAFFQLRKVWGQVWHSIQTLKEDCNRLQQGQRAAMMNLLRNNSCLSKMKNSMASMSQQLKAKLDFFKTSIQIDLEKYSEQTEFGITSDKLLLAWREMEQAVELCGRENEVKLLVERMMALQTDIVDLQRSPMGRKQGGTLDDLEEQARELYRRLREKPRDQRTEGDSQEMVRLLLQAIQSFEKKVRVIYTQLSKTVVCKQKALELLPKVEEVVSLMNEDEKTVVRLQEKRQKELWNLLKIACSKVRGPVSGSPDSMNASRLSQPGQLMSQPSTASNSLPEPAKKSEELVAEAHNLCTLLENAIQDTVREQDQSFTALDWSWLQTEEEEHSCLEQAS
How it was run: as §1

HIPK2 = target: T6, HIPK2 (Homo sapiens, UniProt Q9H2X6)
T6 construct: purchased Reaction Biology Corp
How it was run: as §1

FGFR2 = target: T7, FGFR2 (Homo sapiens, UniProt P21802)
T7 construct: purchased Reaction Biology Corp
How it was run: as §1

PKCg = target: T8, PKCg (Homo sapiens, UniProt P05129)
T8 construct: purchased Reaction Biology Corp
How it was run: as §1

GCK/MAP4K2 = target: T9, GCK/MAP4K2 (Homo sapiens, UniProt Q12851)
T9 construct: purchased Reaction Biology Corp
T9 sequence (Q12851 1-820): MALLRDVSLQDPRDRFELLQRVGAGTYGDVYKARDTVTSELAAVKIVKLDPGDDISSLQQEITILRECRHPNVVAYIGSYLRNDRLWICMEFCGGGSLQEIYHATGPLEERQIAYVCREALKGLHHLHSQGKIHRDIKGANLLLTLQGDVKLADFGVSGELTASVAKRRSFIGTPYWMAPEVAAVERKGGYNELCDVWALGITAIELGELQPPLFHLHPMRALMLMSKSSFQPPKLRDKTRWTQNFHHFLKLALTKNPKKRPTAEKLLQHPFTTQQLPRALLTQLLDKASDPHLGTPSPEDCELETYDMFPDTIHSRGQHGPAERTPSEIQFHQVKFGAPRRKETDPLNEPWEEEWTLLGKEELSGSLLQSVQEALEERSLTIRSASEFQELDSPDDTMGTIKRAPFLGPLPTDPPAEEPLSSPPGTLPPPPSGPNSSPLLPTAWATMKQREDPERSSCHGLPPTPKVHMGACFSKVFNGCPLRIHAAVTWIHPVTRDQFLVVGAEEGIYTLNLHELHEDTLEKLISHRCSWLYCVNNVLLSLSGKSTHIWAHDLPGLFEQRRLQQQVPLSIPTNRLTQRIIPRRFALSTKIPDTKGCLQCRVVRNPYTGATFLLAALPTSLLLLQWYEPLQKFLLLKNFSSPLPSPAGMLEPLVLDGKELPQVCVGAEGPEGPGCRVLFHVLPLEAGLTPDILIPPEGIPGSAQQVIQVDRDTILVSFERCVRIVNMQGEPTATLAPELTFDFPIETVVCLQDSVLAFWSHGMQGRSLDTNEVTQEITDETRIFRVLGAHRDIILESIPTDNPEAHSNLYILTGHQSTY
How it was run: as §1

[1] = read-out: % Enzyme Activity (relative to DMSO controls) Run 1
[2] = read-out: % Enzyme Activity (relative to DMSO controls) Run 2

T7 sequence (P21802 22-821): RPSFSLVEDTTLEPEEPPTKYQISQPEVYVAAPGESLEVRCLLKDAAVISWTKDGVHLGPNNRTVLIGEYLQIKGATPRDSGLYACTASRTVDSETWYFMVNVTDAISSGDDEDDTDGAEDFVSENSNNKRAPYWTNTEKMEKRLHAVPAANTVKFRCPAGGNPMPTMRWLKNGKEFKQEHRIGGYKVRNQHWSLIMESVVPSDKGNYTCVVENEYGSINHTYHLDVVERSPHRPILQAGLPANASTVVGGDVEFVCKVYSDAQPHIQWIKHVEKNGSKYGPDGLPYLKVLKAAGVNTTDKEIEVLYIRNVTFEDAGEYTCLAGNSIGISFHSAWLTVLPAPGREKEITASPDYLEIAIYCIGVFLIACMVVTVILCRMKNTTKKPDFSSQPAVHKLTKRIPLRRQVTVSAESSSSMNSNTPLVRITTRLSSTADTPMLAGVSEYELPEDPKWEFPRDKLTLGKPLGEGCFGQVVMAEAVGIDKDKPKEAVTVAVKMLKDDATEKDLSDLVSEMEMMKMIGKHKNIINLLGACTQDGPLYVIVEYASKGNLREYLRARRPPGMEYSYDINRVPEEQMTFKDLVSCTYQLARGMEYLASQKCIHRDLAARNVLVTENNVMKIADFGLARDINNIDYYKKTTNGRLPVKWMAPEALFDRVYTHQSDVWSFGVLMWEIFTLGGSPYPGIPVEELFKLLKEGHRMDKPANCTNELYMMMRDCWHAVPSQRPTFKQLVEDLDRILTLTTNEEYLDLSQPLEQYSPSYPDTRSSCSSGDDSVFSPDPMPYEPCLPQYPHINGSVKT
T4 sequence (Q86UE8 whole entry): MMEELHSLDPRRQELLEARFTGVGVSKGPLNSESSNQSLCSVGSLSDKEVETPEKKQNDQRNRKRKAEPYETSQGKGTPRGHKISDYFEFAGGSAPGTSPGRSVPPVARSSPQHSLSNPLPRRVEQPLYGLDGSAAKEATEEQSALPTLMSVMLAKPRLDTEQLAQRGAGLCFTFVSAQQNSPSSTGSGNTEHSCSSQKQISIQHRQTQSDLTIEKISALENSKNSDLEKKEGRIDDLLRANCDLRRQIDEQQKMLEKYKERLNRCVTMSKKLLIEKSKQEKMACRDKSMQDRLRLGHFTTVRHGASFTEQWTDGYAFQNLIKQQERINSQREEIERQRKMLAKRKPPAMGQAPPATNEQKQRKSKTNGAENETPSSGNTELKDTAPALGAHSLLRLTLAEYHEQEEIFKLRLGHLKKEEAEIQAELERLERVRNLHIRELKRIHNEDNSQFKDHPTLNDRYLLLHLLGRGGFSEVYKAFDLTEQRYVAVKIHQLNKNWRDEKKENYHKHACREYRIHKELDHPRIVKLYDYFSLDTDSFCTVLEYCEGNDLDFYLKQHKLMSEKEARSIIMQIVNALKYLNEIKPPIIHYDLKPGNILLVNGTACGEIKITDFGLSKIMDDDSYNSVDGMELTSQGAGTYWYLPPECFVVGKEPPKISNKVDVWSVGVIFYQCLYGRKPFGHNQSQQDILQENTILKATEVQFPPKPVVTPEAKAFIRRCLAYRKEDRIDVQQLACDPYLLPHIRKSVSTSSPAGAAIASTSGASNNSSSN
T3 sequence (P49137 whole entry): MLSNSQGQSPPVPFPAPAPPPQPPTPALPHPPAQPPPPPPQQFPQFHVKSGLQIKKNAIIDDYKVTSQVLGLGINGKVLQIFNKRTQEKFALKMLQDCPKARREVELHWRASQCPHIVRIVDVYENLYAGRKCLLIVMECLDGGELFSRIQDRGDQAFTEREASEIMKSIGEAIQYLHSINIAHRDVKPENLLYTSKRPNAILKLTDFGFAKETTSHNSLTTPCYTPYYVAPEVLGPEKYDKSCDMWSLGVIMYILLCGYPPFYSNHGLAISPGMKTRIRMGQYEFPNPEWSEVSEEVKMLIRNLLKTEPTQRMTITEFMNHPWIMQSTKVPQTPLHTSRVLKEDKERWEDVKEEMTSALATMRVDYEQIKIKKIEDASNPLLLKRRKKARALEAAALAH
T6 sequence (Q9H2X6 whole entry): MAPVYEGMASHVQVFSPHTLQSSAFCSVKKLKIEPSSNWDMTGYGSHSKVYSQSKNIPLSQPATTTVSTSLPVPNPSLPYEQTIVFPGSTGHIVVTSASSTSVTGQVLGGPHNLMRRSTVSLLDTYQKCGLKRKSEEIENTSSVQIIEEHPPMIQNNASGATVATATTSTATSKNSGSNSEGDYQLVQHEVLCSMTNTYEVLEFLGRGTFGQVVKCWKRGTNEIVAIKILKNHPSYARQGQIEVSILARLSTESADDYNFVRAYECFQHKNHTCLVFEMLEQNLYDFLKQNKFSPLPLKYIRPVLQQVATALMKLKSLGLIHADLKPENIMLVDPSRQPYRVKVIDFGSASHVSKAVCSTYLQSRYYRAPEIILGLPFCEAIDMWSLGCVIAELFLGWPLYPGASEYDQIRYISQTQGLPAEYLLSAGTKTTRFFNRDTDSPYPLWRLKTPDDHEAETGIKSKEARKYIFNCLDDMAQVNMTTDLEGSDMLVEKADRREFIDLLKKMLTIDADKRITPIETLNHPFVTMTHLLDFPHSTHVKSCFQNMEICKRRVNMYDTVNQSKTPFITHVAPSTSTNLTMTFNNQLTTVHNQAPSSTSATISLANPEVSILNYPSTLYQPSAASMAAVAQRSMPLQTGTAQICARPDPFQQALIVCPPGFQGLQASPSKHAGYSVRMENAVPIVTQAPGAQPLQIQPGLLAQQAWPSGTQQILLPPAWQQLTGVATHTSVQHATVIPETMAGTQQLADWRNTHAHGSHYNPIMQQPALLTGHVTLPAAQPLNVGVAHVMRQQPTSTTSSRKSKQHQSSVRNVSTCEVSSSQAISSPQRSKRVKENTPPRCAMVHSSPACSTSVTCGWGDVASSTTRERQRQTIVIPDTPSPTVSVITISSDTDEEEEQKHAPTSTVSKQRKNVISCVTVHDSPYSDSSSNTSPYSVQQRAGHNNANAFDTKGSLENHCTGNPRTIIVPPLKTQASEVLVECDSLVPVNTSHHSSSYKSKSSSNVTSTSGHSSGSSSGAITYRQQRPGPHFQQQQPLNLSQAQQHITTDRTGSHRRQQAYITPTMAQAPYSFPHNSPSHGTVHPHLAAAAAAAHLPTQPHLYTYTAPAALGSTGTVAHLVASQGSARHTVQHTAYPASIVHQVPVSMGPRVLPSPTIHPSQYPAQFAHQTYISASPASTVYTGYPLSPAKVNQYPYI
T1 sequence (Q9Y243 whole entry): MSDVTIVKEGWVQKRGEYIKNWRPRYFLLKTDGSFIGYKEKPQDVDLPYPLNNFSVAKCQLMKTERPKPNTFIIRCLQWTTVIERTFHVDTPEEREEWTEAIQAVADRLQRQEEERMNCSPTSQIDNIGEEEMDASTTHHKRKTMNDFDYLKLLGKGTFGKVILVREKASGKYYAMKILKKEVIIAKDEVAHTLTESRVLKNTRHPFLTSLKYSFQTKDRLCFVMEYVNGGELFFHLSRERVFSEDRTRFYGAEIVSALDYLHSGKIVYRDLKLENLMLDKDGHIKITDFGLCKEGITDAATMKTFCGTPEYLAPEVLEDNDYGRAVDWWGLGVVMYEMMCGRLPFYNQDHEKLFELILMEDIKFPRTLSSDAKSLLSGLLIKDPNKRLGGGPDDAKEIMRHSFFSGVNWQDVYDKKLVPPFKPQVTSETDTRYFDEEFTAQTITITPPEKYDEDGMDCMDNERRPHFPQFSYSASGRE
T2 sequence (Q15569 whole entry): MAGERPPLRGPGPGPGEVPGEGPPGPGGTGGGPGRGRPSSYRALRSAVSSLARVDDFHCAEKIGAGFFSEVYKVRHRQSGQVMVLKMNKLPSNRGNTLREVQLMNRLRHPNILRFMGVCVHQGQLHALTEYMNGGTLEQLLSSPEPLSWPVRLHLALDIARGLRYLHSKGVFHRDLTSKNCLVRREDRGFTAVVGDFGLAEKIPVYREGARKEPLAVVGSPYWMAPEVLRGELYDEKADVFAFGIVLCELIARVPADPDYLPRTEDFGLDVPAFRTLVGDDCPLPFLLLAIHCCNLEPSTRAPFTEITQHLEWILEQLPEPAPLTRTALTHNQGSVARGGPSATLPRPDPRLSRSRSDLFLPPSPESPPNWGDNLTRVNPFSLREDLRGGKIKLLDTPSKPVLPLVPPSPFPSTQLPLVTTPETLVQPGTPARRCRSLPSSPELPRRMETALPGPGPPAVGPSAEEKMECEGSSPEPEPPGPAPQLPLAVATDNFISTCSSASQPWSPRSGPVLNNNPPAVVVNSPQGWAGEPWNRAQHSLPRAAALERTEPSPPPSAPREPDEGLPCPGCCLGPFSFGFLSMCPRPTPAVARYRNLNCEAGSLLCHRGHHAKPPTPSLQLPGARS

C=CC(=O)Nc1cccc(Nc2nc(Nc3ccc(OCCOC)c(F)c3)ncc2F)c1 [Compound 2]
inhibition at 3 µM (AKT3): -6.85%
remaining activity at 3 µM (AKT3; [1]): 111%
remaining activity at 3 µM (AKT3; [2]): 103%
inhibition at 3 µM (TESK1): 2.13%
remaining activity at 3 µM (TESK1; [1]): 97.2%
remaining activity at 3 µM (TESK1; [2]): 98.5%
inhibition at 3 µM (MAPKAPK2): -7.86%
remaining activity at 3 µM (MAPKAPK2; [1]): 110%
remaining activity at 3 µM (MAPKAPK2; [2]): 106%
% Enzyme Activity (relative to DMSO controls) Run 1 (RAF1): 83.34%
% Enzyme Activity (relative to DMSO controls) Run 2 (RAF1): 83.62%
Average % Inhibition (RAF1): 16.52%
inhibition at 3 µM (TLK2): -6.32%
remaining activity at 3 µM (TLK2; [1]): 108%
remaining activity at 3 µM (TLK2; [2]): 105%
inhibition at 3 µM (IKKb/IKBKB): 3.75%
remaining activity at 3 µM (IKKb/IKBKB; [1]): 95.4%
remaining activity at 3 µM (IKKb/IKBKB; [2]): 97.1%
inhibition at 3 µM (HIPK2): 2.82%
remaining activity at 3 µM (HIPK2; [1]): 95.8%
remaining activity at 3 µM (HIPK2; [2]): 98.6%
inhibition at 3 µM (FGFR2): 63.4%
remaining activity at 3 µM (FGFR2; [1]): 37.3%
remaining activity at 3 µM (FGFR2; [2]): 36%
inhibition at 3 µM (PKCg): 16%
remaining activity at 3 µM (PKCg; [1]): 83.9%
remaining activity at 3 µM (PKCg; [2]): 84.2%
inhibition at 3 µM (GCK/MAP4K2): -0.14%
remaining activity at 3 µM (GCK/MAP4K2; [1]): 100%
remaining activity at 3 µM (GCK/MAP4K2; [2]): 100%
